According to paper PMC5681660, “Reduced hepatitis B and D viral entry using clinically applied drugs as novel inhibitors of the bile acid transporter NTCP” (Scientific Reports, 2017):
Where a name gives a salt, the structure may show the parent alone. Read-outs that look alike come from different tables or passages of the source.

How the values were obtained:
human NTCP [1] = molecular target: T1, human NTCP (Homo sapiens, UniProt Q14973); test: Screening taurocholate uptake assay (96-well, [14C]taurocholate, 10 µM drug)
T1 sequence (Q14973 1-349): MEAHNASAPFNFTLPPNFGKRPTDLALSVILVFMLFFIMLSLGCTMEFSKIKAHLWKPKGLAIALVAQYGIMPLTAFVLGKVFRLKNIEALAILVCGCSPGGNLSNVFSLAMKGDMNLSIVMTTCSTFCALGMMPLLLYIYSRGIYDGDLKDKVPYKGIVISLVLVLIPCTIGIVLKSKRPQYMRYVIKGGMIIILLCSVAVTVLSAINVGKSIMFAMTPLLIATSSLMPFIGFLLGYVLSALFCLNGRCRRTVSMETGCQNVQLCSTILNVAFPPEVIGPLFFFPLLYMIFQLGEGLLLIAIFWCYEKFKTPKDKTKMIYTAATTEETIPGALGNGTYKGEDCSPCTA

human NTCP [2] = molecular target: T1, human NTCP; test: Screening fluorescent competitive Myrcludex B-FITC binding assay (96-well, 10 µM drug)
[3] = Prestwick library screen, 10 µM drug, B-score of taurocholate uptake
[4] = combined ranking from functional and binding assay B-scores
[5] = Prestwick library screen, 10 µM drug, B-score of Myrcludex B-FITC binding
[6] = combined ranking from functional and binding screening assays
[7] = screen, 10 µM drug, taurocholate uptake
[8] = screen, 10 µM drug, Myrcludex B-FITC binding
[9] = Prestwick library screen, taurocholate uptake, 10 µM drug
[10] = ranking score beside the functional and binding assay B-scores of the screen
[11] = Prestwick library screen, Myrcludex B-FITC binding, 10 µM drug

## Nc1ccc(C(=O)NCC(=O)O)cc1 [Aminohippuric acid]
Human NTCP [1]; [3]
  B-score functional assay: 1.44
Human NTCP [1]; [4]
  Ranking score: 1073.5
Human NTCP [2]; [5]
  B-score binding assay: 0.866

## c1ccc(CNc2ncnc3[nH]cnc23)cc1 [Aminopurine, 6-benzyl]
Human NTCP [1]; [6]
  Ranking score: 337.92
Human NTCP [1]; [7]
  B-score functional assay: -0.027
Human NTCP [2]; [8]
  B-score binding assay: -1.308

## CCCCc1oc2ccccc2c1C(=O)c1cc(I)c(OCCN(CC)CC)c(I)c1 [Amiodarone hydrochloride]
Human NTCP [1]; [9]
  B-score functional assay: 0.027
Human NTCP [1]; [10]
  Ranking score: 845.421
Human NTCP [2]; [11]
  B-score binding assay: 1.025

## CN(C)CCCO[C@@H]1[C@H]2OC(C)(C)O[C@H]2O[C@@H]1[C@H](O)CO [Amiprilose hydrochloride]
Human NTCP [1]; [9]
  B-score functional assay: 0.017
Human NTCP [1]; [10]
  Ranking score: 760.053
Human NTCP [2]; [11]
  B-score binding assay: 0.378

## CCN1CCCC1CNC(=O)c1cc(S(=O)(=O)CC)c(N)cc1OC (stereo not drawn) [Amisulpride]
Human NTCP [1]; [3]
  B-score functional assay: 0.107
Human NTCP [1]; [4]
  Ranking score: 873.097
Human NTCP [2]; [5]
  B-score binding assay: 0.863

## CN(C)CCC=C1c2ccccc2CCc2ccccc21.Cl [Amitryptiline hydrochloride]
Human NTCP [1]; [9]
  B-score functional assay: -0.217
Human NTCP [1]; [10]
  Ranking score: 769.935
Human NTCP [2]; [11]
  B-score binding assay: 2.835

## CCOC(=O)C1=C(COCCN)NC(C)=C(C(=O)OC)C1c1ccccc1Cl (stereo not drawn) [Amlodipine]
Human NTCP [1]; [3]
  B-score functional assay: 0.5
Human NTCP [1]; [4]
  Ranking score: 1057.69
Human NTCP [2]; [5]
  B-score binding assay: 2.427

## CCN(CC)Cc1cc(Nc2ccnc3cc(Cl)ccc23)ccc1O.Cl.Cl.O.O [Amodiaquin dihydrochloride dihydrate]
Human NTCP [1]; [9]
  B-score functional assay: -0.477
Human NTCP [1]; [10]
  Ranking score: 658.143
Human NTCP [2]; [11]
  B-score binding assay: 1.445

## Cc1c(N)c(=O)n(-c2ccccc2)n1C [Ampyrone]
Human NTCP [1]
  B-score functional assay: 0.135
  Ranking score: 788.348
Human NTCP [2]
  B-score binding assay: 0.217

## Nc1cc(-c2ccncc2)c[nH]c1=O [Amrinone]
Human NTCP [1]; [6]
  Ranking score: 350.268
Human NTCP [1]; [7]
  B-score functional assay: -1.236
Human NTCP [2]; [8]
  B-score binding assay: -0.056

## O=C1CN2Cc3c(ccc(Cl)c3Cl)N=C2N1 [Anagrelide]
Human NTCP [1]; [3]
  B-score functional assay: 0.197
Human NTCP [1]; [4]
  Ranking score: 871.654
Human NTCP [2]; [5]
  B-score binding assay: 0.622

## C[C@]12CC[C@@H](O)C[C@@H]1CC[C@@H]1[C@@H]2CC[C@]2(C)C(=O)CC[C@@H]12 [Androsterone]
Human NTCP [1]
  B-score functional assay: 0.451
  Ranking score: 969.912
Human NTCP [2]
  B-score binding assay: 1.069

## COc1ccc(-c2cc(=S)ss2)cc1 [Anethole-trithione]
Human NTCP [1]; [9]
  B-score functional assay: 0.437
Human NTCP [1]; [10]
  Ranking score: 719.937
Human NTCP [2]; [11]
  B-score binding assay: -0.048

## COc1ccc(C(=O)N2CCCC2=O)cc1 [Aniracetam]
Human NTCP [1]; [6]
  Ranking score: 340.074
Human NTCP [1]; [7]
  B-score functional assay: -1.196
Human NTCP [2]; [8]
  B-score binding assay: -0.157

## c1ccc(CN(CC2=NCCN2)c2ccccc2)cc1 [Antazoline hydrochloride]
Human NTCP [1]; [3]
  B-score functional assay: 1.194
Human NTCP [1]; [4]
  Ranking score: 927.719
Human NTCP [2]; [5]
  B-score binding assay: 0.166

## CN[C@@H]1[C@@H](O[C@H]2O[C@H](CO)[C@@H](N)[C@H](O)[C@H]2O)OC2C[C@@H](N)[C@@H](O[C@H]3[C@H](O)[C@@H](O)[C@H](N)C[C@@H]3N)OC2[C@@H]1O (stereo partly drawn) [Apramycin]
Human NTCP [1]; [6]
  Ranking score: 397.98
Human NTCP [1]; [7]
  B-score functional assay: -0.431
Human NTCP [2]; [8]
  B-score binding assay: -0.447

## OC[C@H]1O[C@@H](Oc2ccc(O)cc2)[C@H](O)[C@@H](O)[C@@H]1O [Arbutin]
Human NTCP [1]; [3]
  B-score functional assay: 0.864
Human NTCP [1]; [4]
  Ranking score: 944.447
Human NTCP [2]; [5]
  B-score binding assay: 0.372

## CC1CNc2c(cccc2S(=O)(=O)N[C@@H](CCCNC(=N)N)C(=O)N2CC[C@@H](C)C[C@@H]2C(=O)O)C1 (stereo partly drawn) [Argatroban]
Human NTCP [1]; [9]
  B-score functional assay: -0.168
Human NTCP [1]; [10]
  Ranking score: 668.874
Human NTCP [2]; [11]
  B-score binding assay: 0.437

## C[C@@H]1CC[C@H]2[C@@H](C)C(=O)O[C@@H]3O[C@@]4(C)CC[C@@H]1[C@]32OO4 [Artemisinin]
Human NTCP [1]; [9]
  B-score functional assay: 0.234
Human NTCP [1]; [10]
  Ranking score: 655.672
Human NTCP [2]; [11]
  B-score binding assay: -0.138

## CCCNC(C)C(=O)Nc1c(C)csc1C(=O)OC (stereo not drawn) [Articaine hydrochloride]
Human NTCP [1]; [6]
  Ranking score: 451.414
Human NTCP [1]; [7]
  B-score functional assay: -1.04
Human NTCP [2]; [8]
  B-score binding assay: 0.267

## O=C1O[C@H]([C@@H](O)CO)C(O)=C1O [Ascorbic acid]
Human NTCP [1]; [6]
  Ranking score: 365.334
Human NTCP [1]; [7]
  B-score functional assay: -1.672
Human NTCP [2]; [8]
  B-score binding assay: 0.271
